# Data taken from patent US7034050B2, “Pseudopeptides growth hormone secretagogues” (priority 2004, dated 2006).
# Tests used:
# GH release [1] = assay: stimulation of GH release in vitro; format: cell-based
# [2] = target: T1, human pituitary gland tissues (Homo sapiens, UniProt Q92847); assay: binding affinity to human pituitary gland tissues; conditions: compared with ghrelin, hexarelin, MK 0677 and JMV 1843
# T1 construct: from tissue; host or cells: human pituitary gland tissue
# GH release [3] = assay: GH release in vivo (neonatal rats injected subcutaneously); set-up: species or system rat
# [4] = tested on: rat epididynial adipocytes; assay: binding affinity to rat epididynial adipocytes; conditions: compared with rat ghrelin, MK 0677 and hexarelin
# T1 sequence (Q92847 whole entry): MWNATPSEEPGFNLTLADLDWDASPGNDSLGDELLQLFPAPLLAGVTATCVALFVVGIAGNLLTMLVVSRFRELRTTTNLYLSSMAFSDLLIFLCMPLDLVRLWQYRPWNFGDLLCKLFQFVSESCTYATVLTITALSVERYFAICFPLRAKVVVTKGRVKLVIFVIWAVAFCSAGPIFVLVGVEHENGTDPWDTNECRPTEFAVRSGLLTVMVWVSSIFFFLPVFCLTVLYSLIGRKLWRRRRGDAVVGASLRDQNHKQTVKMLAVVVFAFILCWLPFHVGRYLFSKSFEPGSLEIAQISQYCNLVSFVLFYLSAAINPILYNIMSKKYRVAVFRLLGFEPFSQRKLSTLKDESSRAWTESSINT
Substance,potency in stimulating the GH release in vitro (GH release [1]),binding affinity to human pituitary gland tissues [2],potency in stimulating the GH release in vivo (GH release [3]),"amount of growth hormone released (GH release [3]; neonatal rats, subcutaneous injection, compared with MK 0677 and hexarelin)",binding affinity to rat epididynial adipocytes [4]
Aib-D-Trp-D-Trpψ[CH2—NH—O]Gly-NH2 [IIa],remarkably potent,comparable to that of the natural ligand ghrelin and superior to the binding affinity of the synthetic GH secretagogues,remarkably potent,exceeded the amount released when the standard GH secretagogues MK 0677 and hexarelin were administered,comparable to that of rat ghrelin and superior to that of MK 0677 and hexarelin
Aib-D-Trp-D-Trpψ[CH═N˜O]Gly-NH2 [Ia],remarkably potent,comparable to that of the natural ligand ghrelin and superior to the binding affinity of the synthetic GH secretagogues,remarkably potent,,comparable to that of rat ghrelin and superior to that of MK 0677 and hexarelin
